Measurements from PubChem BioAssay AID1963972 (Molecular Pharmacology Branch, DTP, NCI, 2024).

System: 945468-187-T-J2-PDC spheroids viability
Test: Anticancer human tumor 945468-187-T-J2-PDC patient-derived rectal carcinoma cell line growth inhibition [PI3K]
Settings: spheroids with HUVEC and MSC; for IC50: curve of first compound; for viability, T/C: stronger effect = lower value
How it was run: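 Spheroid viability read-out. Co-cultures contained the tumor line plus HUVEC and human MSCs. Each agent was paired with a PI3K inhibitor (inavolisib, alpelisib, duvelisib, copanlisib) across half-log dilutions starting at clinical Cmax, or at 10 microM when Cmax was unknown.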

[1] = second compound 0.0316 µM, first compound 0.0316 µM
[2] = second compound 0.0316 µM, first compound 0.1 µM
[3] = second compound 0.0316 µM, first compound 0.316 µM
[4] = second compound 0.0316 µM, first compound 1 µM
[5] = second compound 0.0316 µM, first compound 3.16 µM
[6] = second compound 0.0316 µM, first compound 10 µM
[7] = second compound 0.1 µM, first compound 0.0316 µM
[8] = second compound 0.1 µM, first compound 0.1 µM
[9] = second compound 0.1 µM, first compound 0.316 µM
[10] = second compound 0.1 µM, first compound 1 µM
[11] = second compound 0.1 µM, first compound 3.16 µM
[12] = second compound 0.1 µM, first compound 10 µM
[13] = second compound 0.316 µM, first compound 0.0316 µM
[14] = second compound 0.316 µM, first compound 0.1 µM
[15] = second compound 0.316 µM, first compound 0.316 µM
[16] = second compound 0.316 µM, first compound 1 µM
[17] = second compound 0.316 µM, first compound 3.16 µM
[18] = second compound 0.316 µM, first compound 10 µM
[19] = second compound 1 µM, first compound 0.0316 µM
[20] = second compound 1 µM, first compound 0.1 µM
[21] = second compound 1 µM, first compound 0.316 µM
[22] = second compound 1 µM, first compound 1 µM
[23] = second compound 1 µM, first compound 3.16 µM
[24] = second compound 1 µM, first compound 10 µM
[25] = second compound 3.16 µM, first compound 0.0316 µM
[26] = second compound 3.16 µM, first compound 0.1 µM
[27] = second compound 3.16 µM, first compound 0.316 µM
[28] = second compound 3.16 µM, first compound 1 µM
[29] = second compound 3.16 µM, first compound 3.16 µM
[30] = second compound 3.16 µM, first compound 10 µM
[31] = second compound 10 µM, first compound 0.0316 µM
[32] = second compound 10 µM, first compound 0.1 µM
[33] = second compound 10 µM, first compound 0.316 µM
[34] = second compound 10 µM, first compound 1 µM
[35] = second compound 10 µM, first compound 3.16 µM
[36] = second compound 10 µM, first compound 10 µM
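Also: spheroids exposed to compounds for seven days before reading.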

C#Cc1c(F)ccc2cc(O)cc(-c3ncc4c(N5CC6CCC(C5)N6)nc(OCC56CCCN5CC(F)C6)nc4c3F)c12 (stereo unspecified) + Cc1nc(NC(=O)N2CCCC2C(N)=O)sc1-c1ccnc(C(C)(C)C(F)(F)F)c1
IC50 (second compound 0.0316 µM): > 10 µM
IC50 (second compound 0.1 µM): > 10 µM
IC50 (second compound 0.316 µM): > 10 µM
IC50 (second compound 1 µM): > 10 µM
IC50 (second compound 3.16 µM): > 10 µM
IC50 (second compound 10 µM): > 10 µM
viability, T/C [1]: 110%
viability, T/C [2]: 110%
viability, T/C [3]: 105%
viability, T/C [4]: 103%
viability, T/C [5]: 135%
viability, T/C [6]: 107%
viability, T/C [7]: 125%
viability, T/C [8]: 114%
viability, T/C [9]: 102%
viability, T/C [10]: 107%
viability, T/C [11]: 136%
viability, T/C [12]: 105%
viability, T/C [13]: 103%
viability, T/C [14]: 100%
viability, T/C [15]: 116%
viability, T/C [16]: 102%
viability, T/C [17]: 164%
viability, T/C [18]: 99.1%
viability, T/C [19]: 125%
viability, T/C [20]: 93.6%
viability, T/C [21]: 109%
viability, T/C [22]: 116%
viability, T/C [23]: 106%
viability, T/C [24]: 90.5%
viability, T/C [25]: 85.6%
viability, T/C [26]: 85.8%
viability, T/C [27]: 95.4%
viability, T/C [28]: 94.1%
viability, T/C [29]: 94%
viability, T/C [30]: 117%
viability, T/C [31]: 85.5%
viability, T/C [32]: 73.2%
viability, T/C [33]: 99%
viability, T/C [34]: 92.6%
viability, T/C [35]: 77%
viability, T/C [36]: 80.9%

CC(Cn1ccc(-c2ccc(C#N)c(Cl)c2)n1)NC(=O)c1cc(C(C)O)[nH]n1 (stereo unspecified) + Cc1nc(NC(=O)N2CCCC2C(N)=O)sc1-c1ccnc(C(C)(C)C(F)(F)F)c1
IC50 (second compound 0.0316 µM): > 10 µM
IC50 (second compound 0.1 µM): > 10 µM
IC50 (second compound 0.316 µM): > 10 µM
IC50 (second compound 1 µM): > 10 µM
IC50 (second compound 3.16 µM): > 10 µM
IC50 (second compound 10 µM): > 10 µM
viability, T/C [1]: 118%
viability, T/C [2]: 94.1%
viability, T/C [3]: 115%
viability, T/C [4]: 96.3%
viability, T/C [5]: 90.7%
viability, T/C [6]: 82.5%
viability, T/C [7]: 90.7%
viability, T/C [8]: 81%
viability, T/C [9]: 90.8%
viability, T/C [10]: 100%
viability, T/C [11]: 104%
viability, T/C [12]: 82.1%
viability, T/C [13]: 100%
viability, T/C [14]: 95.6%
viability, T/C [15]: 109%
viability, T/C [16]: 80%
viability, T/C [17]: 89.6%
viability, T/C [18]: 83.4%
viability, T/C [19]: 95.4%
viability, T/C [20]: 84.9%
viability, T/C [21]: 79.4%
viability, T/C [22]: 101%
viability, T/C [23]: 79.3%
viability, T/C [24]: 84.7%
viability, T/C [25]: 81%
viability, T/C [26]: 84.2%
viability, T/C [27]: 78.4%
viability, T/C [28]: 83.5%
viability, T/C [29]: 71.7%
viability, T/C [30]: 74.9%
viability, T/C [31]: 76.9%
viability, T/C [32]: 76.3%
viability, T/C [33]: 73.3%
viability, T/C [34]: 68%
viability, T/C [35]: 69%
viability, T/C [36]: 61.5%

CC1(C)CCC(Nc2ncc(C(F)(F)F)c(-c3c[nH]c4c(P(C)(C)=O)c(C#N)ccc34)n2)CN1 (stereo unspecified) + Cc1nc(NC(=O)N2CCCC2C(N)=O)sc1-c1ccnc(C(C)(C)C(F)(F)F)c1
IC50 (second compound 0.0316 µM): 2.65 µM
IC50 (second compound 0.1 µM): 2.14 µM
IC50 (second compound 0.316 µM): > 10 µM
IC50 (second compound 1 µM): > 10 µM
IC50 (second compound 3.16 µM): 1.98 µM
IC50 (second compound 10 µM): 2.32 µM
viability, T/C [1]: 95.8%
viability, T/C [2]: 104%
viability, T/C [3]: 78.4%
viability, T/C [4]: 62.9%
viability, T/C [5]: 47%
viability, T/C [6]: 45.3%
viability, T/C [7]: 87%
viability, T/C [8]: 85.4%
viability, T/C [9]: 93.2%
viability, T/C [10]: 55.2%
viability, T/C [11]: 53.1%
viability, T/C [12]: 41.6%
viability, T/C [13]: 87.8%
viability, T/C [14]: 130%
viability, T/C [15]: 80.3%
viability, T/C [16]: 59.2%
viability, T/C [17]: 48.1%
viability, T/C [18]: 45.5%
viability, T/C [19]: 89.8%
viability, T/C [20]: 99.3%
viability, T/C [21]: 91.4%
viability, T/C [22]: 53.8%
viability, T/C [23]: 48.5%
viability, T/C [24]: 55.3%
viability, T/C [25]: 99.8%
viability, T/C [26]: 106%
viability, T/C [27]: 73.7%
viability, T/C [28]: 57%
viability, T/C [29]: 50.1%
viability, T/C [30]: 43.1%
viability, T/C [31]: 81.8%
viability, T/C [32]: 77.5%
viability, T/C [33]: 48.9%
viability, T/C [34]: 53.7%
viability, T/C [35]: 60.2%
viability, T/C [36]: 39.4%
